The values below come from patent US20240115705A1, “Regulation of Butyrophilin subfamily 3 member A1 (BTN3A1, CD277)” (The J. Gladstone Institutes, a testamentary trust …, priority 2021, published 2024).

The data set concerns Daudi-Cas9 cells. Description: Cancer-T cell co-culture genome-wide CRISPR knockout screen (Vγ9Vδ2 T cell killing). It is filed as cell-based, human.
Where [1] appears, read: MAGeCK sgRNA test, co-culture screen.
The mark [2] stands for this setting: log-fold change of sgRNA, surviving cells after co-culture vs baseline, MAGeCK.
Setting [3] is: sgRNA abundance in surviving Daudi-Cas9 KO cells after 24 hours Vγ9Vδ2 T cell co-culture with zoledronate, MAGeCK.
[4] abbreviates: sgRNA enriched (TRUE) or depleted (FALSE) after T cell co-culture.

Read-outs that look alike come from different tables or passages of the source.

For the substance “MTG2_ATGAGTACATTGCCGCGCT: library sgRNA targeting MTG2 (listed as DNA, chemistry not fully specified)”, the score under setting [1] was found to be 6.5262. In addition, the LFC under setting [2] is recorded as −4.2612. Besides, the treat mean under setting [3] is given as 163.79. Moreover, the high_in_treatment result under setting [4] is “FALSE”.

Substance “N6AMT1_AGCAGAAACGTGTCCTCCG: library sgRNA targeting N6AMT1 (listed as DNA, chemistry not fully specified)” gave a score under setting [1] of 6.0901. Besides, under setting [2], the LFC was −3.683. Further, under setting [3], the treat mean is 224.71. Moreover, under setting [4], the high_in_treatment result was “FALSE”.

In turn, “NAPG_GCAAAAGATGCCTGCCTGA: library sgRNA targeting NAPG (listed as DNA, chemistry not fully specified)” displayed a score under setting [1] of 6.3569. Also, under setting [2], the LFC is −6.2732. Under setting [3], this substance showed a treat mean of 33.086. Further, the high_in_treatment entry under setting [4] was “FALSE”.

With “NLRC5_AGTCACGTGTCCTACCGTC: library sgRNA targeting NLRC5 (listed as DNA, chemistry not fully specified)”, the score under setting [1] amounted to 6.4705. Further, the LFC under setting [2] was 1.0275. Under setting [3], this substance had a treat mean of 5262.4. Also, the high_in_treatment result under setting [4] is “TRUE”.

On to “NUDCD3_TCACCACGTGCTTGGGTAC: library sgRNA targeting NUDCD3 (listed as DNA, chemistry not fully specified)”, for which the score under setting [1] is reported as 6.5243. Moreover, the LFC under setting [2] is −3.6651. Further, under setting [3], the treat mean is given as 262.75. Besides, the high_in_treatment result under setting [4] was “FALSE”.

Under setting [1], “NUP37_GCCAGCACACACTCATGCC: library sgRNA targeting NUP37 (listed as DNA, chemistry not fully specified)” displayed a score of 5.9656. In addition, the LFC under setting [2] is on record as −1.9711. The treat mean under setting [3] was determined as 1092.8. For the same substance, under setting [4], the high_in_treatment entry is given as “FALSE”.

In turn, “OIP5_CGACTCGGTGCACCTCGCC: library sgRNA targeting OIP5 (as printed in the source, key not given here)” showed a score under setting [1] of 6.3045. Besides, the LFC under setting [2] is −7.255. The treat mean under setting [3] stood at 16.543. Also, under setting [4], the high_in_treatment entry is “FALSE”.

Under setting [1], “OIP5_TATTCTACCCATGCTGCCC: library sgRNA targeting OIP5 (as printed in the source, key not given here)” gave a score of 6.4136. Besides, the LFC under setting [2] is −5.8943. The same substance displayed a treat mean under setting [3] of 45.034. For the same substance, under setting [4], the high_in_treatment result was “FALSE”.

As for “PHB_GACCGATTCCGTGGAGTGC: library sgRNA targeting PHB (as printed in the source, key not given here)”, under setting [1], the score is given as 6.0021. Moreover, under setting [2], the LFC is −3.7742. Moreover, the treat mean under setting [3] is reported as 202.44. Also, the high_in_treatment entry under setting [4] was “FALSE”.

Turning to “PNLIPRP1_GCCCCTGAAAATTCTCCCC: library sgRNA targeting PNLIPRP1 (chemistry not given here)”, the LFC is reported as −2.1878, the high_in_treatment entry was “FALSE”, the score is listed as 7.0018 and the treat mean is listed as 1182.9.

Regarding “PRMT1_TGGTGCTGGACGTCGGCTC: library sgRNA targeting PRMT1 (listed as DNA, chemistry not fully specified)”, the score under setting [1] worked out at 6.7595. The LFC under setting [2] is given as −8.6196. Further, under setting [3], the treat mean is on record as 6.7801. For the same substance, the high_in_treatment result under setting [4] is on record as “FALSE”.

For “PSMG4_CACCTGCGCAACCTCGCCG: library sgRNA targeting PSMG4 (listed as DNA, chemistry not fully specified)”, the score under setting [1] worked out at 6.1467. For the same substance, the LFC under setting [2] is −3.4412. The substance further displayed a treat mean under setting [3] of 279.92. Moreover, the high_in_treatment entry under setting [4] is “FALSE”.

With “RAB7A_CGGTTCCAGTCTCTCGGTG: library sgRNA targeting RAB7A (listed as DNA, chemistry not fully specified)”, under setting [1], the score was determined as 6.2219. Also, under setting [2], the LFC is listed as −4.046. This substance also showed a treat mean under setting [3] of 175.17. For the same substance, under setting [4], the high_in_treatment entry was “FALSE”.

Consider “RFXAP_ACAGGGTTGCATCACTAGC: library sgRNA targeting RFXAP (listed as DNA, chemistry not fully specified)”, for which the score under setting [1] is 10.037. The same substance returned an LFC under setting [2] of 1.6018. The treat mean under setting [3] amounted to 4884.6. Also, the high_in_treatment entry under setting [4] is “TRUE”.

Under setting [1], “RFXAP_ACGAGGAGACTCACTCGGG: library sgRNA targeting RFXAP (listed as DNA, chemistry not fully specified)” displayed a score of 6.9897. Besides, the LFC under setting [2] is given as 2.2103. The same substance registered a treat mean under setting [3] of 1110.2. Besides, the high_in_treatment entry under setting [4] is “TRUE”.

“RFXAP_AGACACTTCGGACCCTCCG: library sgRNA targeting RFXAP (listed as DNA, chemistry not fully specified)” gave a score under setting [1] of 10.922. Besides, the LFC under setting [2] is recorded as 1.5343. Under setting [3], this substance registered a treat mean of 6378.3. In addition, under setting [4], the high_in_treatment result is given as “TRUE”.

Under setting [1], “RFXAP_CGTTAGGTACCTGTGCGAA: library sgRNA targeting RFXAP (listed as DNA, chemistry not fully specified)” displayed a score of 7.0414. The LFC under setting [2] came to 1.5428. In addition, the treat mean under setting [3] is on record as 2592.9. Under setting [4], the high_in_treatment entry was “TRUE”.

In turn, “RPP21_GCACTCACGTCTCTGGCGC: library sgRNA targeting RPP21 (as printed in the source, key not given here)” gave a score under setting [1] of 6.2576. The LFC under setting [2] is listed as −7.9412. The substance also came in with a treat mean under setting [3] of 9.6859. Further, under setting [4], the high_in_treatment entry is recorded as “FALSE”.

“RPP25L_TGGCTCTGGGTCGGTTGGA: library sgRNA targeting RPP25L (as printed in the source, key not given here)” came in with a score under setting [1] of 6.0209. In addition, the LFC under setting [2] was −7.7316. This substance had a treat mean under setting [3] of 9.1906. Besides, the high_in_treatment entry under setting [4] is “FALSE”.

Turning to “RPP38_CGATTCTCTCACTGAGCCG: library sgRNA targeting RPP38 (as printed in the source, key not given here)”, under setting [1], the score came out at 7.8058. Further, the LFC under setting [2] was −3.1996. The substance also had a treat mean under setting [3] of 558.49. For the same substance, under setting [4], the high_in_treatment result was “FALSE”.

For the substance “SAE1_TGCTTCTTGTCGGCTTGAA: library sgRNA targeting SAE1 (listed as DNA, chemistry not fully specified)”, the score under setting [1] is 7.1879. Moreover, under setting [2], the LFC is reported as −7.4222. Further, the treat mean under setting [3] turned out to be 19.337. The high_in_treatment entry under setting [4] is “FALSE”.

With “SARS2_GCACGGTGCTCACCACGTC: library sgRNA targeting SARS2 (chemistry not given here)”, the LFC is listed as −3.8724, the high_in_treatment entry is on record as “FALSE”, the score was 6.2052 and the treat mean was 200.19.

With “SCO1_CACCCCCGTGGTCGCAGAA: library sgRNA targeting SCO1 (listed as DNA, chemistry not fully specified)”, the score under setting [1] stood at 10.413. Moreover, the LFC under setting [2] was −3.6001. The treat mean under setting [3] is listed as 714.32. Further, the high_in_treatment result under setting [4] is listed as “FALSE”.

“SH3GL1_ACTTCTGTCACCGCCTTGC: library sgRNA targeting SH3GL1 (listed as DNA, chemistry not fully specified)” returned a score under setting [1] of 6.045. Under setting [2], the LFC was −7.484. For the same substance, the treat mean under setting [3] worked out at 11.374. For the same substance, under setting [4], the high_in_treatment result is “FALSE”.

Substance “SHMT2_CAACCTCACGACCGGATCA: library sgRNA targeting SHMT2 (listed as DNA, chemistry not fully specified)” displayed a score under setting [1] of 5.9975. Also, the LFC under setting [2] is −5.253. Under setting [3], this substance had a treat mean of 63.415. Moreover, the high_in_treatment result under setting [4] is given as “FALSE”.

Substance “SHMT2_TGCTCGACTTTTCCGGCCA: library sgRNA targeting SHMT2 (listed as DNA, chemistry not fully specified)” had a score under setting [1] of 6.1486. Besides, under setting [2], the LFC is listed as −3.7292. In addition, the treat mean under setting [3] worked out at 220.66. In addition, the high_in_treatment result under setting [4] is “FALSE”.

On to “SLC2A4_CAGGTCTGAAGCGCCTGAC: library sgRNA targeting SLC2A4 (listed as DNA, chemistry not fully specified)”, for which the score under setting [1] is recorded as 6.0044. The same substance gave an LFC under setting [2] of 4.6166. This substance also gave a treat mean under setting [3] of 47.773. Also, the high_in_treatment entry under setting [4] is on record as “TRUE”.

Substance “SLC22A3_GCCTTCCTCTTCGTCGGCG: library sgRNA targeting SLC22A3 (listed as DNA, chemistry not fully specified)” yielded a score under setting [1] of 6.0158. In addition, the LFC under setting [2] is 1.0179. For the same substance, the treat mean under setting [3] turned out to be 4633. Besides, the high_in_treatment result under setting [4] is “TRUE”.

Under setting [1], “SNF8_ACCATTGGCGTGGATCCGC: library sgRNA targeting SNF8 (as printed in the source, key not given here)” yielded a score of 6.4788. For the same substance, under setting [2], the LFC is given as −6.2459. Further, the treat mean under setting [3] is 35.261. The high_in_treatment result under setting [4] is listed as “FALSE”.

On to “SPI1_ATACTCGTGCGTTTGGCGT: library sgRNA targeting SPI1 (as printed in the source, key not given here)”, for which the score under setting [1] was 8.1546. The substance further gave an LFC under setting [2] of 1.1261. For the same substance, the treat mean under setting [3] is 6915.7. Also, under setting [4], the high_in_treatment result is “TRUE”.
